The text below walks through data of patent US11427548B2 (Arvinas Operations, Inc., priority 2015, dated 2022).

The structures appear in SMILES notation. Read-outs that look alike come from different tables or passages of the source. Bounds are passed on as bounds.

One assay has as its system VCaP cells. Briefly: VCaP cell proliferation assay (Cell Titer Glo), GI50. The assay is classed as cell-based. As to conditions: Homo sapiens; VCaP cells, 0.1 nM R1881; Table 37; read-out: GI50, Inhibition of VCaP Proliferation. The protocol: 2. VCaP Cell Proliferation Assay.
VCaP cells are plated 7,500/well 200 μL/well in VCaP assay medium [Phenol red free RPMI (Gibco Cat #11835-030); 5% Charcoal Stripped (Dextran treated) FBS (Omega Scientific, Cat #FB-04); Pen/Strep Life Technologies (Gibco Cat #: 10378-016); 0.1 nM R1881 (Sigma, Cat #R0908) is added upon the start of the assay, not during initial plating of the cells).
The assay was performed as follows: the cells are grown for a minimum of 3 days to deplete androgens; dosing of PROTACs and R1881 is performed as for AR ELISA; the baseline reading of Cell Titer Glo can be performed on day of dosing.
VCaP cells with 0.1 nM R1881 will double once in 4 days. Gently draw off 110 μL of media so as not to disturb the adherent cells; add 110 μL of CTG; incubate with slow shaking for 20 minutes; and read luminescence on a plate reader.

Another assay addresses T1, Androgen Receptor (Homo sapiens, UniProt P10275).
T1 construct: endogenous in cells; host or cells: VCaP cells
T1 sequence (P10275 1-920): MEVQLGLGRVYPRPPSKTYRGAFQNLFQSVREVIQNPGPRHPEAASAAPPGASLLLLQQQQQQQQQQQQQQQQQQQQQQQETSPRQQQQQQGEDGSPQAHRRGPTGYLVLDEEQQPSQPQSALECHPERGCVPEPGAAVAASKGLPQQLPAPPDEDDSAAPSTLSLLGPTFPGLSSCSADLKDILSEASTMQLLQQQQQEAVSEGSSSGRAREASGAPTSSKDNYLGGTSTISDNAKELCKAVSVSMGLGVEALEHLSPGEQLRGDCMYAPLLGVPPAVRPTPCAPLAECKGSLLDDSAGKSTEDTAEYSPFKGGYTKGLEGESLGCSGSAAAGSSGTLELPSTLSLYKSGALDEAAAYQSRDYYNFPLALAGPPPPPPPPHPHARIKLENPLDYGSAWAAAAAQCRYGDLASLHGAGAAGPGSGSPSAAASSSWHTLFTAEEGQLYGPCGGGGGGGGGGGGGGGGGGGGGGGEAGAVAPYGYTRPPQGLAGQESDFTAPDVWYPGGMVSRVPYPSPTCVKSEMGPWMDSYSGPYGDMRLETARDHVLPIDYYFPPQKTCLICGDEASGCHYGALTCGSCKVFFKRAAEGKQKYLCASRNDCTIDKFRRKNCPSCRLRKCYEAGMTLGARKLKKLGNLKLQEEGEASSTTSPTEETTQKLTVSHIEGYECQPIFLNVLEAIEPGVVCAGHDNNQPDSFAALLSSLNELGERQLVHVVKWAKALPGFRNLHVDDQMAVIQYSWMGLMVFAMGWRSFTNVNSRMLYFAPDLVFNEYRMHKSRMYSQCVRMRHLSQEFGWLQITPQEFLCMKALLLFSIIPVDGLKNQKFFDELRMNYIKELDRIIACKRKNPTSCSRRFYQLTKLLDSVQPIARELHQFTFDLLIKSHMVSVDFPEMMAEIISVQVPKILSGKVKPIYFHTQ
Description: Androgen Receptor ELISA assay (PathScan AR ELISA) in VCaP cells: AR degradation, Dmax and DC50. The assay is classed as cell-based. A digest of the protocol: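 After 24 h exposure of VCaP cells (charcoal-stripped serum, 0.1 nM R1881 agonist, 0.1% DMSO) to seven half-log compound concentrations, residual AR in lysates was measured by PathScan ELISA (TMB absorbance, 450 nm). Cells were plated at 30,000/well and grown at least 3 days beforehand.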

Where [1] appears, read: VCaP, highest percentage of Androgen Receptor degradation observed, VCaP cells (Table 32); read-out: VCaP Dmax (%).
The mark [2] stands for this setting: VCaP cells; concentration that caused 50% Androgen Receptor degradation; read-out: VCaP DC50.
[3] abbreviates: VCaP, VCaP cells; highest percentage of Androgen Receptor degradation; read-out: VCaP Dmax (%).
Setting [4] is: read-out: VCaP DC50; VCaP cells; concentration that caused 50% Androgen Receptor degradation.

With `CC(C)(C)[C@H](NC(=O)COCCCCOc1ccc(C(=O)N[C@H]2C(C)(C)[C@H](Oc3ccc(C#N)c(Cl)c3)C2(C)C)cc1)C(=O)N1C[C@H](O)C[C@H]1C(=O)NCc1ccc(C#N)cc1` [Example 170, (2S,4R)-N-[(4-cyanophenyl)methyl]-1-[(2S)-3,3-dimethyl-2-{2-[4-(4-{[trans-3-(3-chloro-4-cyanophenoxy)-2,2,4,4-tetramethylcyclobutyl]carbamoyl}phenoxy)butoxy]acetamido}butanoyl]-4-hydroxypyrrolidine-2-carboxamide], the GI50 in the assay on VCaP cells is not above 50 nM. Moreover, the Dmax on Androgen Receptor (setting [1]) was more than 71%. Further, the DC50 on Androgen Receptor (concentration that caused 50% Androgen Receptor degradation, VCaP cells (Table 32); read-out: VCaP DC50) was less than 50 nM.

Regarding `Cc1ncsc1-c1ccc(CNC(=O)[C@@H]2C[C@@H](O)CN2C(=O)[C@@H](NC(=O)COCCCCCNc2ccc(C(=O)N[C@H]3C(C)(C)[C@H](Oc4ccc(C#N)c(Cl)c4)C3(C)C)cc2)C(C)(C)C)cc1` [Example 172, (2S,4R)-1-[(2S)-3,3-dimethyl-2-[2-({5-[(4-{[trans-3-(3-chloro-4-cyanophenoxy)-2,2,4,4-tetramethylcyclobutyl]carbamoyl}phenyl)amino]pentyl}oxy)acetamido]butanoyl]-4-hydroxy-N-{[4-(4-methyl-1,3-thiazol-5-yl)phenyl]methyl}pyrrolidine-2-carboxamide], the GI50 in the assay on VCaP cells was not above 50 nM. Further, the Dmax on Androgen Receptor (setting [1]) is more than 71%.

As for `Cc1ncsc1-c1ccc(CNC(=O)[C@@H]2C[C@@H](O)CN2C(=O)[C@@H](NC(=O)COCc2ccc(Oc3ccc(C(=O)N[C@H]4C(C)(C)[C@H](Oc5ccc(C#N)c(Cl)c5)C4(C)C)cc3)cc2)C(C)(C)C)cc1` [Example 183, (2S,4R)-1-[(2S)-3,3-dimethyl-2-(2-{[4-(4-{[trans-3-(3-chloro-4-cyanophenoxy)-2,2,4,4-tetramethylcyclobutyl]carbamoyl}phenoxy)phenyl]methoxy}acetamido)butanoyl]-4-hydroxy-N-{[4-(4-methyl-1,3-thiazol-5-yl)phenyl]methyl}pyrrolidine-2-carboxamide], the GI50 in the assay on VCaP cells is not above 50 nM. Also, the Dmax on Androgen Receptor (setting [1]) was more than 71%.

On to `Cc1ncsc1-c1ccc([C@H](C)NC(=O)[C@@H]2C[C@@H](O)CN2C(=O)[C@@H](NC(=O)COCCCCOc2ccc(-c3ccc(N4C(=S)N(c5cnc(C#N)c(C(F)(F)F)c5)C(=O)C4(C)C)cc3)cc2)C(C)(C)C)cc1` [Example 194, (2S,4R)-1-[(2S)-2-(2-{4-[4-(4-{3-[6-cyano-5-(trifluoromethyl)pyridin-3-yl]-5,5-dimethyl-4-oxo-2-sulfanylideneimidazolidin-1-yl}phenyl)phenoxy]butoxy}acetamido)-3,3-dimethylbutanoyl]-4-hydroxy-N-[(1S)-1-[4-(4-methyl-1,3-thiazol-5-yl)phenyl]ethyl]pyrrolidine-2-carboxamide], for which, in the assay on VCaP cells, the GI50 is 51 to 250 nM. Besides, the DC50 at Androgen Receptor (setting [2]) was less than 50 nM. The greatest degradation seen (Dmax) at Androgen Receptor (setting [3]) is more than 71%.

As to `Cc1ncoc1-c1ccc([C@H](C)NC(=O)[C@@H]2C[C@@H](O)CN2C(=O)[C@@H](NC(=O)COCCCCOc2ccc(-c3ccc(N4C(=S)N(c5cnc(C#N)c(C(F)(F)F)c5)C(=O)C4(C)C)cc3)cc2)C(C)(C)C)cc1` [Example 195, (2S,4R)-1-[(2S)-2-(2-{4-[4-(4-{3-[6-cyano-5-(trifluoromethyl)pyridin-3-yl]-5,5-dimethyl-4-oxo-2-sulfanylideneimidazolidin-1-yl}phenyl)phenoxy]butoxy}acetamido)-3,3-dimethylbutanoyl]-4-hydroxy-N-[(1S)-1-[4-(4-methyl-1,3-oxazol-5-yl)phenyl]ethyl]pyrrolidine-2-carboxamide], in the assay on VCaP cells, the GI50 lay in the range of 51 to 250 nM. Further, the DC50 on Androgen Receptor (setting [2]) was less than 50 nM. The Dmax at Androgen Receptor (setting [3]) was more than 71%.

Regarding `Cc1ncsc1-c1ccc(CNC(=O)[C@@H]2C[C@@H](O)CN2C(=O)[C@@H](NC(=O)COCCCCOc2ccc(-c3ccc(N4C(=S)N(c5cnc(C#N)c(C(F)(F)F)c5)C(=O)C4(C)C)c(F)c3)cc2)C(C)(C)C)cc1` [Example 197, (2S,4R)-1-[(2S)-2-(2-{4-[4-(4-{3-[6-cyano-5-(trifluoromethyl)pyridin-3-yl]-5,5-dimethyl-4-oxo-2-sulfanylideneimidazolidin-1-yl}-3-fluorophenyl)phenoxy]butoxy}acetamido)-3,3-dimethylbutanoyl]-4-hydroxy-N-{[4-(4-methyl-1,3-thiazol-5-yl)phenyl]methyl}pyrrolidine-2-carboxamide], in the assay on VCaP cells, the GI50 was 51 to 250 nM. For the same compound, the DC50 on Androgen Receptor (setting [2]) was less than 50 nM. On Androgen Receptor (setting [3]), the Dmax is more than 71%.

For `Cc1ncsc1-c1ccc(CNC(=O)[C@@H]2C[C@@H](O)CN2C(=O)[C@@H](NC(=O)COCC2CC3(C2)CC(COc2ccc(N4C(=S)N(c5ccc(C#N)c(C(F)(F)F)c5)C(=O)C4(C)C)cc2)C3)C(C)(C)C)cc1` (stereo partly drawn) [Example 201, (2S,4R)-1-[(2S)-2-[2-({6-[(4-{3-[4-cyano-3-(trifluoromethyl)phenyl]-5,5-dimethyl-4-oxo-2-sulfanylideneimidazolidin-1-yl}phenoxy)methyl]spiro[3.3]heptan-2-yl}methoxy)acetamido]-3,3-dimethylbutanoyl]-4-hydroxy-N-{[4-(4-methyl-1,3-thiazol-5-yl)phenyl]methyl} pyrrolidine-2-carboxamide], in the assay on VCaP cells, the GI50 was 51 to 250 nM. Moreover, the Dmax at Androgen Receptor (VCaP, read-out: VCaP Dmax (%)) was more than 71%. Further, the DC50 on Androgen Receptor (setting [4]) is less than 50 nM.

Take `Cc1ncsc1-c1ccc([C@H](C)NC(=O)[C@@H]2C[C@@H](O)CN2C(=O)[C@@H](NC(=O)COCC2CC3(C2)CC(COc2ccc(N4C(=S)N(c5ccc(C#N)c(C(F)(F)F)c5)C(=O)C4(C)C)cc2)C3)C(C)(C)C)cc1` (stereo partly drawn) [Example 202, (2S,4R)-1-[(2S)-2-[2-({6-[(4-{3-[4-cyano-3-(trifluoromethyl)phenyl]-5,5-dimethyl-4-oxo-2-sulfanylideneimidazolidin-1-yl}phenoxy)methyl]spiro[3.3]heptan-2-yl}methoxy)acetamido]-3,3-dimethylbutanoyl]-4-hydroxy-N-[(1S)-1-[4-(4-methyl-1,3-thiazol-5-yl)phenyl]ethyl] pyrrolidine-2-carboxamide]: the GI50 in the assay on VCaP cells lay within 51 to 250 nM. Also, on Androgen Receptor (VCaP, read-out: VCaP Dmax (%)), the greatest degradation seen (Dmax) was more than 71%. On Androgen Receptor (setting [4]), the DC50 is less than 50 nM.

For the compound `Cc1ncsc1-c1ccc(CNC(=O)[C@@H]2C[C@@H](O)CN2C(=O)[C@@H](NC(=O)COCCNc2ccc(-c3ccc(C(=O)NC4C(C)(C)C(Oc5ccc(C#N)c(Cl)c5)C4(C)C)cc3)cc2)C(C)(C)C)cc1` (stereo partly drawn) [Example 204, (2S,4R)-1-[(2S)-2-[2-(2-{[4-(4-{[3-(3-chloro-4-cyanophenoxy)-2,2,4,4-tetramethylcyclobutyl]carbamoyl}phenyl)phenyl]amino}ethoxy)acetamido]-3,3-dimethylbutanoyl]-4-hydroxy-N-{[4-(4-methyl-1,3-thiazol-5-yl)phenyl]methyl}pyrrolidine-2-carboxamide], the GI50 with VCaP cells is not above 50 nM. For the same compound, the 50% degradation concentration (DC50) at Androgen Receptor (setting [2]) is less than 50 nM. Besides, the Dmax at Androgen Receptor (setting [3]) was more than 71%.
